Experimental data: patent US9981940B2, “Aryl sulfide derivatives and aryl sulfoxide derivatives as acaricides and insecticides” (BAYER CROPSCIENCE AKTIENGESELLSCHAFT, priority 2013, dated 2018)

Tests used:
[1] = log P by HPLC (OECD Guideline 117), method [a] acidic range; assay type: physicochemical; conditions: for logP[a]: HPLC, method [a] acidic range; for chromatographic logP: reversed-phase C18 HPLC column, acidic range
Protocol: (§1) The log P values were determined analogously to OECD Guideline 117 (EC Directive 92/69/EEC) by HPLC (high-performance liquid chromatography) using reversed-phase columns (C 18), by the following methods:
[a] The LC-MS determination in the acidic range is effected at pH 2.7 with 0.1% aqueous formic acid and acetonitrile (contains 0.1% formic acid) as eluents; linear gradient from 10% acetonitrile to 95% acetonitrile.

[2] = log P by HPLC (OECD Guideline 117), method [b] neutral range; assay type: physicochemical; conditions: HPLC; for logP[b]: method [b] neutral range
Protocol: as §1
[b] The LC-MS determination in the neutral range is effected at pH 7.8 with 0.001 molar aqueous ammonium hydrogencarbonate solution and acetonitrile as eluents; linear gradient from 10% acetonitrile to 95% acetonitrile.

Tetranychus urticae = Tetranychus urticae spray test, OP-resistant (TETRUR); assay type: in vivo; conditions: after 6 days
Protocol: Tetranychus urticae—Spray Test, OP-Resistant (TETRUR)
• Solvent: 78.0 parts by weight of acetone • 1.5 parts by weight of dimethylformamide • Emulsifier: 0.5 part by weight of alkylaryl polyglycol ether
To produce an appropriate active ingredient formulation, 1 part by weight of active ingredient is mixed with the specified amounts of solvent and emulsifier, and the concentrate is diluted to the desired concentration with emulsifier-containing water.
Discs of bean leaves (Phaseolus vulgaris) infested by all stages of the greenhouse red spider mite (Tetranychus urticae) are sprayed with an active ingredient formulation of the desired concentration.
After 6 days, the efficacy in % is determined 100% means that all the spider mites have been killed; 0% means that none of the spider mites have been killed.

Structure (SMILES) | logP[a] [1] | logP[b] [2] | efficacy (Tetranychus urticae; application rate of 500 g/ha) | chromatographic logP ([1]; pH 2.7, HPLC method [a], read-out: logP[a]) | chromatographic logP ([1]; pH 2.7, HPLC, pH 2.7, read-out: log P[a]) | chromatographic logP ([2]; reversed-phase C18 HPLC column, neutral range, pH 7.8) | pest or weed control at 500 g/ha (Tetranychus urticae; Tetranychus urticae, 144 h, application rate of 500 g/ha, read-out: efficacy) | efficacy (Tetranychus urticae; application rate of 100 g/ha)
COc1nn(-c2cc([S+]([O-])CC(F)(F)F)c(F)cc2F)c(=O)n1C (stereo not shown) [Example 169] | 1.81 | 1.77 | 90% | – | – | – | – | –
Cc1cc(Cl)c(-n2nc(OCC(F)(F)F)n(C3CC3)c2=O)cc1SCC(F)(F)F [Example 187] | 3.98 | 3.93 | 90% | – | – | – | – | –
Cc1cc(F)c(-n2nc(OC(C)C)n(C)c2=O)cc1[S+]([O-])CC(F)(F)F (stereo not shown) [Example 166] | 2.48 | 2.44 | 90% | – | – | – | – | –
CCSc1nn(-c2cc([S+]([O-])CC(F)(F)F)c(C)cc2F)c(=O)n1C (stereo not shown) [Example 274, 5-(Ethylsulphanyl)-2-{2-fluoro-4-methyl-5-[(2,2,2-trifluoroethyl)sulphinyl]phenyl}-4-methyl-2,4-dihydro-3H-1,2,4-triazol-3-one] | – | – | – | 2.42 | 2.42 | 2.36 | 100% | –
CCCOc1nn(-c2cc([S+]([O-])CC(F)(F)F)c(C)cc2F)c(=O)n1C1CC1 (stereo not shown) [Example 112] | 2.83 | 2.79 | 90% | – | – | – | – | –
CCCCOc1nn(-c2cc(SCC(F)(F)F)c(C)cc2F)c(=O)n1C1CC1 [Example 125] | 4.41 | 4.35 | 90% | – | – | – | – | –
CCn1c([S+](C)[O-])nn(-c2cc(SCC(F)(F)F)c(C)cc2F)c1=O (stereo not shown) [Example 240] | 2.53 | 2.46 | 100% | – | – | – | – | –
Cc1cc(F)c(-n2nc(SCc3ccccc3)n(C)c2=O)cc1SCC(F)(F)F [Example 286] | 4.12 | 4.03 | 100% | – | – | – | – | –
C=CCn1c(SCC)nn(-c2cc(SCC(F)(F)F)c(C)cc2F)c1=O [Example 428] | 4.03 | 3.96 | 100% | – | – | – | – | –
CCCCOc1nn(-c2cc([S+]([O-])CC(F)(F)F)c(C)cc2F)c(=O)n1C1CC1 (stereo not shown) [Example 124] | 3.24 | 3.20 | – | – | – | – | – | 90%
CC1=CC(=O)N(c2cc(SCC(F)(F)F)c(C)cc2F)C1=O [Example 340] | 3.37 | 3.39 | 90% | – | – | – | – | –
Cc1cc(F)c(-n2nc(CC(C)C)n(C3CC3)c2=O)cc1[S+]([O-])CC(F)(F)F (racemic) [Example 84] | 2.86 | 2.80 | 100% | – | – | – | – | –
C=CCSc1nn(-c2cc(SCC(F)(F)F)c(C)cc2F)c(=O)n1CC=C [Example 429] | 4.13 | 4.07 | 90% | – | – | – | – | –
CCOc1nn(-c2cc(SCC(F)(F)F)c(C)cc2F)c(=O)n1C1CC1 [Example 120] | 3.58 | 3.44 | 100% | – | – | – | – | –
Cc1cc(F)c(-n2nc([S+]([O-])C(C)C)n(C3CC3)c2=O)cc1[S+]([O-])CC(F)(F)F (stereo not shown) [Example 239] | 2.08 | 2.03 | 100% | – | – | – | – | –
Cc1ccc(-n2nc(C(F)(F)F)n(N)c2=O)cc1SCC(F)(F)F [Example 212] | 3.38 | 3.37 | 90% | – | – | – | – | –
C=CCn1c(SCCC)nn(-c2cc(SCC(F)(F)F)c(C)cc2F)c1=O [Example 427] | 4.45 | 4.37 | 90% | – | – | – | – | –
Cc1cc(F)c(-n2nc(Br)n(C)c2=O)cc1[S+]([O-])CC(F)(F)F (stereo not shown) [Example 433] | 2.02 | 1.99 | 100% | – | – | – | – | –
CCSc1nn(-c2cc([S+]([O-])CC(F)(F)F)c(C)cc2F)c(=O)n1CC (racemic) [Example 293] | 2.76 | 2.72 | 90% | – | – | – | – | –

Structure (SMILES) | logP[a] [1] | logP[b] [2] | efficacy (Tetranychus urticae; application rate of 500 g/ha) | chromatographic logP ([1]; pH 2.7, HPLC method [a], read-out: logP[a]) | chromatographic logP ([1]; pH 2.7, HPLC, pH 2.7, read-out: log P[a]) | chromatographic logP ([2]; reversed-phase C18 HPLC column, neutral range, pH 7.8) | pest or weed control at 500 g/ha (Tetranychus urticae; Tetranychus urticae, 144 h, application rate of 500 g/ha, read-out: efficacy) | efficacy (Tetranychus urticae; application rate of 100 g/ha)
Cc1cc(F)c(-n2nc(OCc3ccccc3)n(C3CC3)c2=O)cc1SCC(F)(F)F [Example 410] | 4.32 | 4.25 | 100% | – | – | – | – | –
Cc1cc(F)c(-n2ncn(N)c2=O)cc1SCC(F)(F)F [Example 211] | 2.02 | 2.01 | 100% | – | – | – | – | –
Cc1cc(F)c(-n2ncn(-c3ccccc3)c2=O)cc1[S+]([O-])CC(F)(F)F (racemic) [Example 357] | 2.38 | 2.36 | 90% | – | – | – | – | –
Cc1cc(F)c(-n2nc(C3CCCCC3)n(C3CC3)c2=O)cc1[S+]([O-])CC(F)(F)F (stereo not shown) [Example 361] | 3.34 | 3.31 | 100% | – | – | – | – | –
CCn1c(C(F)(F)F)nn(-c2cc([S+]([O-])CC(F)(F)F)c(C)cc2F)c1=O (stereo not shown) [Example 58] | 2.88 | 2.77 | 90% | – | – | – | – | –
Cc1cc(C)c(-n2nnn(C(C)C)c2=O)cc1SCC(F)(F)F [Example 298] | 3.81 | 3.78 | 100% | – | – | – | – | –
Cc1cc(F)c(N2C(=O)C=C(Br)C2=O)cc1SCC(F)(F)F [Example 337] | 3.91 | 3.50 | 90% | – | – | – | – | –
CCN(CC)c1nn(-c2cc(SCC(F)(F)F)c(C)cc2F)c(=O)n1N [Example 222] | 3.22 | 3.17 | 90% | – | – | – | – | –
Cc1cc(F)c(-n2nc(SC(F)(F)F)n(C3CC3)c2=O)cc1[S+]([O-])CC(F)(F)F (stereo not shown) [Example 264] | 3.05 | 2.98 | 100% | – | – | – | – | –
COCc1nn(-c2cc(SCC(F)(F)F)c(C)cc2F)c(=O)n1C1CC1 [Example 46] | 2.91 | 2.90 | 90% | – | – | – | – | –
Cc1cc(F)c(-n2nc(N(C)C)n(C3CC3)c2=O)cc1SCC(F)(F)F [Example 416] | 3.86 | 3.80 | 90% | – | – | – | – | –
COn1c(C)nn(-c2cc([S+]([O-])CC(F)(F)F)c(C)cc2F)c1=O (stereo not shown) [Example 226] | 1.76 | 1.74 | 100% | – | – | – | – | –
Cc1cc(F)c(-n2nc(C(F)(F)F)n(CC(F)(F)F)c2=O)cc1SCC(F)(F)F [Example 55] | 4.22 | 4.11 | 90% | – | – | – | – | –
CCc1nn(-c2cc(SCC(F)(F)F)c(C)cc2F)c(=O)n1C1CC1 [Example 77] | 3.24 | 3.18 | 100% | – | – | – | – | –
Cc1cc(C)c([S+]([O-])CC(F)(F)F)cc1-n1ncn(Cc2ccccc2)c1=O (stereo not shown) [Example 374] | 2.50 | 2.47 | 90% | – | – | – | – | –
Cc1cc(F)c(-n2nc(SC(F)(F)F)n(C)c2=O)cc1SCC(F)(F)F [Example 283] | 3.71 | 3.64 | 100% | – | – | – | – | –
Cc1cc(F)c(-n2nc(C(C)C)n(C3CC3)c2=O)cc1[S+]([O-])CC(F)(F)F (stereo not shown) [Example 43] | 2.52 | 2.47 | 100% | – | – | – | – | –
COn1c(C(C)C)nn(-c2cc([S+]([O-])CC(F)(F)F)c(C)cc2F)c1=O (stereo not shown) [Example 419] | 2.46 | 2.42 | 100% | – | – | – | – | –
Cc1cc(F)c(-n2nc(OC3CCCCC3)n(C)c2=O)cc1SCC(F)(F)F [Example 153] | 4.50 | 4.44 | 100% | – | – | – | – | –
